Several values for one entry are separate records, joined by “and”; a condition that tells them apart may be missing. Equal entries are not always repeated. Where two headings read alike, the source gives them in different places.
Assays:
Test in all cases: Greenhouse test, pre-emergence treatment
[1] = system: VIOAR; assay type: in vivo, Viola arvensis
Excerpt: (§1) The culture containers used were plastic flowerpots containing loamy sand with approximately 3.0% of humus as the substrate. The seeds of the test plants were sown separately for each species.
(§2) For the pre-emergence treatment, the active ingredients, which had been suspended or emulsified in water, were applied directly after sowing by means of finely distributing nozzles. The containers were irrigated gently to promote germination and growth and subsequently covered with transparent plastic hoods until the plants had rooted. This cover caused uniform germination of the test plants, unless this had been impaired by the active ingredients.
(§3) Depending on the species, the plants were kept at 10-25° C. or 20-35° C., respectively.
(§4) The test period extended over 2 to 4 weeks. During this time, the plants were tended, and their response to the individual treatments was evaluated.
(§5) Evaluation was carried out using a scale from 0 to 100. 100 means no emergence of the plants, or complete destruction of at least the aerial moieties, and 0 means no damage, or normal course of growth. A moderate herbicidal activity is given at values of at least 60, a good herbicidal activity is given at values of at least 70, and a very good herbicidal activity is given at values of at least 85.
(§6) The respective stated components a and b, and if appropriate, c were formulated as a 10% by weight strength emulsion concentrate and, with addition of the amount of solvent system, introduced into the spray liquor used for applying the active compound.
(§7) In the examples, the solvent used was water.
(§8) In the examples below, using the method of S. R. Colby (1967) “Calculating synergistic and antagonistic responses of herbicide combinations”, Weeds 15, p. 22ff., the value E, which is expected if the activity of the individual active compounds is only additive, was calculated. E=X+Y−(X·Y/100) where • X=percent activity using active compound a at an application rate A; • Y=percent activity using active compound b at an application rate B; • E=expected activity (in %) by a+b at application rates A+B.
(§9) If the value found experimentally is higher than the value E calculated according to Colby, a synergistic effect is present.

[2] = system: SIDRH; assay type: in vivo, Sida rhombifolia
How it was run: (§10)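 Damage was rated on a 0-100 scale, with 100 meaning no emergence or full destruction of aerial parts. Observed combination effects were set against the additive Colby expectation E=X+Y−(X·Y/100). Spray liquor was water-based, from 10% emulsion concentrates, applied pre-emergence right after sowing in loamy sand (about 3.0% humus). Plants were held at 10-25 °C or 20-35 °C for 2 to 4 weeks.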

[3] = system: APESV; assay type: in vivo, Apera spica-venti; settings: for inhibition at 12.5 g/ha: use rate 12.5 g ai/ha; for inhibition at 25 g/ha: use rate 25 g ai/ha
Excerpt: as §1, §2, §3, §4, §5, §6, §7, §8, §9

[4] = system: MATIN; assay type: in vivo
[5] = system: ERICA; assay type: in vivo, Erigeron canadensis
[6] = system: ELEIN; assay type: in vivo, Eleusine indica
Excerpt: as §1, §2, §3, §4, §5, §6, §7, §8, §9

[7] = system: SETVI; assay type: in vivo, Setaria viridis
Excerpt: as §1, §2, §3, §4, §5, §6, §7, §8, §9

[8] = system: ABUTH; assay type: in vivo, Abutilon theophrasti; settings: Abutilon theophrasti, 480 h
How it was run: as §10

[9] = system: DIGSA; assay type: in vivo, Digitaria sanguinalis; settings: 8 g ai/ha
[10] = system: CENCY; assay type: in vivo; settings: 480 h, read-out: observed % activity 20 DAT
[11] = system: ANTAR; assay type: in vivo; settings: Anthemis arvensis, 480 h, 20 DAT, read-out: observed % activity
How it was run: as §10

[12] = system: CENCY; assay type: in vivo; settings: 480 h, individual, read-out: observed % activity 20 DAT
[13] = system: DIGSA; assay type: in vivo; settings: Digitaria sanguinalis, 480 h, read-out: observed % activity 20 DAT
[14] = system: ERICA; assay type: in vivo; settings: 480 h, 125 g ai/ha, read-out: observed % activity 20 DAT
[15] = Apera spica-venti, 480 h, APESV, 20 DAT, read-out: observed % activity 20 DAT
[16] = Apera spica-venti, 480 h, read-out: observed % activity 20 DAT

SMILES: COCC(C)N(C(=O)CCl)c1c(C)csc1C (stereo not shown) [Dimethenamid, dimethenamid]
- inhibition at 31.25 g/ha ([1]; Viola arvensis, 480 h, use rate 31.25 g ai/ha, read-out: observed % activity 20 DAT): 0%
- inhibition at 62.5 g/ha ([1]; Viola arvensis, 480 h, use rate 62.5 g ai/ha, read-out: observed % activity 20 DAT): 0%
- inhibition at 125 g/ha ([1]; Viola arvensis, 480 h, use rate 125 g ai/ha, read-out: observed % activity 20 DAT): 0%
- observed % activity 20 DAT ([1]; use rate 31.25 g ai/ha): 0%
- observed % activity 20 DAT ([1]; use rate 62.5 g ai/ha): 0%
- observed % activity 20 DAT ([1]; use rate 125 g ai/ha): 0%
- pest or weed control at 250 g/ha ([2]; Sida rhombifolia, 480 h, pre-emergence, 250 g ai/ha, read-out: observed % activity 20 DAT): 70%
- observed % activity 20 DAT ([2]; pre-emergence, 250 g ai/ha): 70%
- observed % activity 20 DAT ([3]; use rate 62.5 g ai/ha, 20 DAT): 95%
- observed % activity 20 DAT ([4]; use rate 62.5 g ai/ha): 70%
- observed % activity 20 DAT ([4]; use rate 125 g ai/ha): 90%

SMILES: CC(C)N(C(=O)COc1nnc(C(F)(F)F)s1)c1ccc(F)cc1 [Flufenacet, flufenacet]
- observed % activity 20 DAT ([1]; use rate 30 g ai/ha): 0%

SMILES: CCC(CC)Nc1c([N+](=O)[O-])cc(C)c(C)c1[N+](=O)[O-] [Pendimethalin, pendimethalin]
- observed % activity 20 DAT ([1]; use rate 500 g ai/ha): 80%
- observed % activity 20 DAT ([5]; 500 g ai/ha): 90%
- observed % activity 20 DAT ([5]; 1000 g ai/ha): 90%
- inhibition at 125 g/ha ([3]; Apera spica-venti, 480 h, use rate 125 g ai/ha, read-out: observed % activity 20 DAT): 85%
- inhibition at 250 g/ha ([3]; Apera spica-venti, 480 h, use rate 250 g ai/ha, read-out: observed % activity 20 DAT): 75%
- inhibition at 500 g/ha ([3]; Apera spica-venti, 480 h, use rate 500 g ai/ha, read-out: observed % activity 20 DAT): 95%
- observed % activity 20 DAT ([3]; use rate 125 g ai/ha, 20 DAT): 60%
- observed % activity 20 DAT ([3]; use rate 250 g ai/ha, 20 DAT): 75%
- observed % activity 20 DAT ([3]; use rate 500 g ai/ha, 20 DAT): 95%
- observed % activity 20 DAT ([6]; 500 g ai/ha): 100%

SMILES: Cn1nc(C(F)(F)F)c(CS(=O)(=O)C2=NOC(C)(C)C2)c1OC(F)F [Pyroxasulfone, pyroxasulfone]
- pest or weed control at 12 g/ha ([2]; Sida rhombifolia, 480 h, pre-emergence, 12 g ai/ha, read-out: observed % activity 20 DAT): 45%
- pest or weed control at 24 g/ha ([2]; Sida rhombifolia, 480 h, pre-emergence, 24 g ai/ha, read-out: observed % activity 20 DAT): 95%
- observed % activity 20 DAT ([2]; pre-emergence, 12 g ai/ha): 45%
- observed % activity 20 DAT ([7]; 8 g ai/ha): 85%
- inhibition at 12.5 g/ha [3, 15]: 40%
- inhibition at 25 g/ha [3, 15]: 50%
- inhibition at 12.5 g/ha [3, 16]: 50%
- inhibition at 25 g/ha [3, 16]: 60%
- pest or weed control at 24 g/ha ([8]; 24 g ai/ha, read-out: observed % activity 20 DAT): 40%
- observed % activity 20 DAT [9]: 95%

SMILES: CC(C)N(C)S(=O)(=O)NC(=O)c1cc(-n2c(=O)cc(C(F)(F)F)n(C)c2=O)c(F)cc1Cl [Saflufenacil, saflufenacil]
- inhibition at 5 g/ha ([10]; 5 g ai/ha): 20%
- inhibition at 10 g/ha ([10]; 10 g ai/ha): 30%
- inhibition at 5 g/ha ([11]; 5 g ai/ha): 98%
- inhibition at 5 g/ha ([12]; use rate 5 g ai/ha): 20%
- inhibition at 10 g/ha ([12]; use rate 10 g ai/ha): 30%
- inhibition at 5 g/ha ([2]; Sida rhombifolia, pre-emergence, 480 h, 5 g ai/ha, 20 DAT, read-out: observed % activity): 55%
- inhibition at 10 g/ha ([2]; Sida rhombifolia, pre-emergence, 480 h, 10 g ai/ha, 20 DAT, read-out: observed % activity): 90%
- inhibition at 10 g/ha ([2]; Sida rhombifolia, pre-emergence, 480 h, SIDRH, pre-emergence, individual, use rate 10 g ai/ha, read-out: observed % activity 20 DAT): 20%
- inhibition at 10 g/ha ([2]; Sida rhombifolia, pre-emergence, 480 h, pre-emergence, 10 g ai/ha, read-out: observed % activity 20 DAT): 20%
- inhibition at 3.125 g/ha ([3]; Apera spica-venti, 480 h, APESV, use rate 3.125 g ai/ha, 20 DAT, read-out: observed % activity 20 DAT): 0%
- inhibition at 18 g/ha ([13]; 18 g ai/ha): 0%
- inhibition at 36 g/ha ([13]; 36 g ai/ha): 65%
- inhibition at 18 g/ha ([6]; Eleusine indica, 480 h, 18 g ai/ha, read-out: observed % activity 20 DAT): 35%
- inhibition at 36 g/ha ([6]; Eleusine indica, 480 h, 36 g ai/ha, read-out: observed % activity 20 DAT): 95%
- inhibition at 10 g/ha ([8]; 10 g ai/ha, 20 DAT, read-out: observed % activity): 90%
- inhibition at 10 g/ha ([8]; 10 g ai/ha, read-out: observed % activity 20 DAT): 25%
- inhibition at 10 g/ha ([8]; ABUTH, individual, use rate 10 g ai/ha, read-out: observed % activity 20 DAT): 25%

SMILES: CC(C)(F)c1nc(N)nc(Nc2c(F)c(F)cc(F)c2F)n1 [compound 2, 6-(1-Fluoro-1-methyl-ethyl)-N4-(2,3,5,6-tetrafluorophenyl)-1,3,5-triazine-2,4-diamine]
- observed % activity 20 DAT ([1]; use rate 2 g ai/ha): 50%
- inhibition at 1 g/ha ([3]; Apera spica-venti, 480 h, APESV, use rate 1 g ai/ha, 20 DAT, read-out: observed % activity 20 DAT): 95%
- inhibition at 2 g/ha ([3]; Apera spica-venti, 480 h, APESV, use rate 2 g ai/ha, 20 DAT, read-out: observed % activity 20 DAT): 95%
- observed % activity 20 DAT ([3]; use rate 2 g ai/ha, 20 DAT): 90% and 95%
- observed % activity 20 DAT ([3]; use rate 4 g ai/ha, 20 DAT): 98%
- observed % activity 20 DAT ([4]; use rate 1 g ai/ha): 98%

SMILES: CC1(c2nc(N)nc(Nc3c(F)c(F)cc(F)c3F)n2)CCC1 [compound 8, 6-(1-methylcyclobutyl)-N4-(2,3,5,6-tetrafluorophenyl)-1,3,5-triazine-2,4-diamine]
- inhibition at 8 g/ha ([11]; 8 g ai/ha): 80%
- inhibition at 16 g/ha ([11]; 16 g ai/ha): 85%
- observed % activity ([2]; 8 g ai/ha, 20 DAT): 80%
- observed % activity ([2]; 16 g ai/ha, 20 DAT): 80%
- inhibition at 8 g/ha ([2]; Sida rhombifolia, pre-emergence, 480 h, 8 g ai/ha, 20 DAT, read-out: observed % activity): 65%
- inhibition at 16 g/ha ([2]; Sida rhombifolia, pre-emergence, 480 h, 16 g ai/ha, 20 DAT, read-out: observed % activity): 85%
- inhibition at 8 g/ha ([8]; 8 g ai/ha, 20 DAT, read-out: observed % activity): 80%
- inhibition at 16 g/ha ([8]; 16 g ai/ha, 20 DAT, read-out: observed % activity): 70%

SMILES: CSc1nnc(C(C)(C)C)c(=O)n1N [metribuzin]
- inhibition at 125 g/ha ([10]; 125 g ai/ha): 75%
- inhibition at 250 g/ha ([10]; 250 g ai/ha): 85%
- inhibition at 125 g/ha ([7]; Setaria viridis, 480 h, 125 g ai/ha, read-out: observed % activity 20 DAT): 65%
- inhibition at 250 g/ha ([7]; Setaria viridis, 480 h, 250 g ai/ha, read-out: observed % activity 20 DAT): 95%
- inhibition at 125 g/ha ([6]; Eleusine indica, 480 h, 125 g ai/ha, read-out: observed % activity 20 DAT): 98%
- inhibition at 250 g/ha ([6]; Eleusine indica, 480 h, 250 g ai/ha, read-out: observed % activity 20 DAT): 98%
- inhibition at 125 g/ha [14]: 98%
